Source: patent US8183262B2, “Pyridine derivatives as mGluR2 antagonists” (Hoffmann-La Roche Inc., priority 2007, dated 2012)
pKi: −log10 of the molar value.

Assays:
rat mGlu2 receptor = target: T1, rat mGlu2 receptor (Rattus norvegicus, UniProt P31421); assay: [3H]-LY354740 binding on mGlu2 transfected CHO cell membranes; conditions: inhibition of 10 nM [3H]-LY354740 binding, membranes of CHO cells transfected with rat mGlu2, room temperature, 1 hour
T1 construct: expressed in transfected cells; membranes prepared
T1 sequence (P31421 19-872): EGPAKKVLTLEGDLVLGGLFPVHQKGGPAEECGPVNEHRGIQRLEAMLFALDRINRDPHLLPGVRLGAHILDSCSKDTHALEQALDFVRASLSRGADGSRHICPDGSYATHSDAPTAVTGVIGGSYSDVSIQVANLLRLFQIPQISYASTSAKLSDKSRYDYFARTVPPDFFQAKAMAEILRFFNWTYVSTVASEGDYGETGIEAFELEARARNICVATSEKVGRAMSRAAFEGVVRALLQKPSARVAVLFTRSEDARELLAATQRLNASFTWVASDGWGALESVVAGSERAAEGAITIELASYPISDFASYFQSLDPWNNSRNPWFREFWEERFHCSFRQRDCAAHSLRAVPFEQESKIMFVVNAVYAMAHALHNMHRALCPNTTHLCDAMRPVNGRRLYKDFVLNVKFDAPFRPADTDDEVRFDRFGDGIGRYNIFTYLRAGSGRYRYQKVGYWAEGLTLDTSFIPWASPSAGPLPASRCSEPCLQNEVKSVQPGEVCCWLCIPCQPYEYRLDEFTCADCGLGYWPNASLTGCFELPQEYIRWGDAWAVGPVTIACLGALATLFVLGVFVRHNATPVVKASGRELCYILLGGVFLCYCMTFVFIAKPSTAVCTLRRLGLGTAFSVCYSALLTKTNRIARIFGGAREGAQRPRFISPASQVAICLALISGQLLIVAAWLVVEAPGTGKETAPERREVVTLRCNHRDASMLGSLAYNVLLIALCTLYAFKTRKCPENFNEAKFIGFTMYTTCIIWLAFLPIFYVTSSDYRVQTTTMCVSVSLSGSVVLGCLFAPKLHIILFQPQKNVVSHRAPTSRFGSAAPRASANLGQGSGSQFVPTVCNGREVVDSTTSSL
Summary of the method: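 Membranes from CHO cells stably expressing rat mGlu2 (25 μg protein/ml) incubated 1 hour at room temperature with 10 nM [3H]-LY354740 and test compound in 50 mM Tris-HCl, 2 mM MgCl2, pH 7.4. Non-specific binding defined with 10 μM DCG IV; bound radioactivity counted after filtration. IC50 from four-parameter logistic fit.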

| Structure (SMILES) | melting point [°C] | pKi (rat mGlu2 receptor) |
| --- | --- | --- |
| Cc1cc(-c2ccc(C(F)(F)F)cc2)cc(-c2cccc(C#N)c2)n1 [Example 242, 3-[6-Methyl-4-(4-trifluoromethyl-phenyl)-pyridin-2-yl]-benzonitrile] | 140 | 7.38 |
| Nc1ccc(-c2cc(-c3cc(C(F)(F)F)cc(-c4ccc(C(F)(F)F)cc4)n3)ccn2)cn1 [Example 74, 4-Trifluoromethyl-6-(4-trifluoromethyl-phenyl)-[2,4′;2′,3″]terpyridin-6″-ylamine] | 194 to 196 | 8.00 |
| Cc1cc(-c2ccc(C(F)(F)F)cc2)cc(-c2cccc(-c3cccc(S(=O)(=O)NCC(F)(F)F)c3)n2)n1 [Example 445, 3-[6′-Methyl-4′-(4-trifluoromethyl-phenyl)-[2,2′]bipyridinyl-6-yl]-N-(2,2,2-trifluoro-ethyl)-benzenesulfonamide] | 198 | 8.52 |
| FC(F)(F)c1ccc(-c2cc(C(F)(F)F)nc(-n3cnc(-c4ccncc4)n3)n2)cc1 [Example 148, 2-(3-Pyridin-4-yl-[1,2,4]triazol-1-yl)-4-trifluoromethyl-6-(4-trifluoromethyl-phenyl)-pyrimidine] | 248 | 7.31 |
| Cc1cc(-c2ccc(C(F)(F)F)cc2)nc(-c2cccc(-c3cncc(S(N)(=O)=O)c3)c2)c1 [Example 275, 5-{3-[4-Methyl-6-(4-trifluoromethyl-phenyl)-pyridin-2-yl]-phenyl}-pyridine-3-sulfonic acid amide] | 217 | 7.06 |
| NS(=O)(=O)c1cccc(-c2nc(-c3nc(-c4ccc(Cl)cc4)cc(C(F)(F)F)n3)no2)c1 [Example 2, 3-{3-[4-(4-Chloro-phenyl)-6-trifluoromethyl-pyrimidin-2-yl]-[1,2,4]oxadiazol-5-yl}-benzenesulfonamide] | 273 | 7.55 |
| Cc1cc(-c2ccc(C(F)(F)F)cc2)cc(-c2ccnc(-c3cccc(S(C)(=O)=O)c3)n2)n1 [Example 355, 2-(3-Methanesulfonyl-phenyl)-4-[6-methyl-4-(4-trifluoromethyl-phenyl)-pyridin-2-yl]-pyrimidine] | 208 | 9.00 |
| Nc1ccc(-c2cn(-c3cc(-c4ccc(C(F)(F)F)cc4)cc(C4CC4)n3)cn2)cn1 [Example 54, 5-{1-[6-Cyclopropyl-4-(4-trifluoromethyl-phenyl)-pyridin-2-yl]-1H-imidazol-4-yl}-pyridin-2-ylamine] | 233 to 235 | 7.22 |
| Cc1cc(-c2ccc(C(F)(F)F)cc2)nc(-c2cccc(-c3ccc(S(=O)(=O)NC(C)(C)C)s3)c2)c1 [Example 272, 5-{3-[4-Methyl-6-(4-trifluoromethyl-phenyl)-pyridin-2-yl]-phenyl}-thiophene-2-sulfonic acid tert-butylamide] | 156 | 7.10 |
| NS(=O)(=O)Nc1cccc(-c2cccc(-c3nc(-c4ccc(C(F)(F)F)cc4)cc(C(F)(F)F)n3)c2)c1 [Example 221, N-{3′-[4-Trifluoromethyl-6-(4-trifluoromethyl-phenyl)-pyrimidin-2-yl]-biphenyl-3-yl}-sulfamide] | 174 | 8.15 |
| Nc1ccc(-c2cn(-c3nc(-c4ccc(F)c(F)c4)cc(C(F)(F)F)n3)cn2)cn1 [Example 384, 5-{1-[4-(3,4-Difluoro-phenyl)-6-trifluoromethyl-pyrimidin-2-yl]-1H-imidazol-4-yl}-pyridin-2-ylamine] | 232 | 7.49 |
| Cc1nc(-c2cn(-c3cc(C(F)(F)F)cc(-c4ccc(C(F)(F)F)cc4)n3)cn2)sc1S(=O)(=O)NC(C)(C)C [Example 292, 4-Methyl-2-{1-[4-trifluoromethyl-6-(4-trifluoromethyl-phenyl)-pyridin-2-yl]-1H-imidazol-4-yl}-thiazole-5-sulfonic acid tert-butylamide] | > 250 | 7.55 |
| FC(F)(F)c1ccc(-c2cc(C(F)(F)F)cc(-c3cccc(-c4cccnc4)c3)n2)cc1 [Example 59, 2-(3-Pyridin-3-yl-phenyl)-4-trifluoromethyl-6-(4-trifluoromethyl-phenyl)-pyridine] | 164 to 166 | 7.23 |
